In patent US20260265246A1 (ICAHN SCHOOL OF MEDICINE AT MOUNT SINAI, priority 2021, published 2026):
Read-outs that look alike come from different tables or passages of the source.

Key:
[1] = target: T1, 5HT2A receptor (Homo sapiens, UniProt P28223); test: cell-based; parameters: expressed in transfected cells; host or cells: HEK293T cells, transient co-transfection; details: for Emax: HEK-293T
[2] = target: T1, 5HT2A receptor; test: biochemical; type: binding; parameters: expressed in transfected cells; crude membranes
[3] = target: T1, 5HT2A receptor; test: cell-based; parameters: expressed in transfected cells; host or cells: HEK293T cells, transient co-transfection; details: for Emax: HEK-293T; remark: listed apart in the source
[4] = 5HT2A β-Arr EC50 (nM), BRET1 beta-arrestin2 recruitment, HEK293T cells
[5] = BRET1 beta-arrestin2 recruitment, HEK293T cells, normalized to 5-HT, read-out: 5HT2A β-Arr Emax (%)
[6] = 5HT2A Ki (nM), secondary radioligand binding, Ki from IC50 by Cheng-Prusoff
[7] = BRET2 Gαq dissociation, HEK293T cells, read-out: 5HT2A Gq EC50
[8] = BRET2 Gαq dissociation, HEK293T cells, normalized to 5-HT, read-out: 5HT2A Gq Emax (%)
[9] = BRET1 beta-arrestin2 recruitment, HEK293T cells, read-out: 5HT2A β-Arr EC50
[10] = 5HT2A Gq EC50 (nM), BRET2 Gαq dissociation, HEK293T cells
[11] = 5HT2A β-Arr EC50 (nM), BRET1 beta-arrestin2 recruitment, HEK293T
[12] = BRET1 beta-arrestin2 recruitment, HEK293T, normalized to 5-HT, read-out: 5HT2A β-Arr Emax (%)
[13] = 5HT2A Ki (nM), secondary binding assay, Cheng-Prusoff
[14] = 5HTA Gq EC50 (nM), BRET2 Gαq dissociation, HEK293T
[15] = BRET2 Gαq dissociation, HEK293T, normalized to 5-HT, read-out: 5HTA Gq Emax (%)
[16] = BRET2 Gαq dissociation, HEK293T, read-out: 5HTA Gq EC50
[17] = read-out: 5HT2A β-Arr Emax (%), BRET1 beta-arrestin2 recruitment, HEK293T, normalized to 5-HT
[18] = read-out: 5HTA Gq Emax (%), BRET2 Gαq dissociation, HEK293T, normalized to 5-HT
[19] = BRET1 beta-arrestin2 recruitment, HEK293T, read-out: 5HT2A β-Arr EC50
[20] = secondary radioligand binding, Ki from IC50 by Cheng-Prusoff, read-out: 5HT2A Ki

T1 sequence (P28223 whole entry): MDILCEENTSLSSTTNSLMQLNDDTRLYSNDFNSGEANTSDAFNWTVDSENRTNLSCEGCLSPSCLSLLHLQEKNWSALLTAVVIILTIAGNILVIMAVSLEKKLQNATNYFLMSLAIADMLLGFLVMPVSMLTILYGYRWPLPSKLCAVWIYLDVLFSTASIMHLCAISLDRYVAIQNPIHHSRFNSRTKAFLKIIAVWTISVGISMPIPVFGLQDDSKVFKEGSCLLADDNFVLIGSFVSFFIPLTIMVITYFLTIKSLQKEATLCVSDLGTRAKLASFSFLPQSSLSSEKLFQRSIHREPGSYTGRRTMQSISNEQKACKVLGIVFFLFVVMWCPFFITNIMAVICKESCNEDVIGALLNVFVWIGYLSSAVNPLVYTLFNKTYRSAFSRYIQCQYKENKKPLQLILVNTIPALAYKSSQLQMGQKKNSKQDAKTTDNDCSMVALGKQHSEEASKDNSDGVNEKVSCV

Row | Structure (SMILES) | EC50 [1, 4] | Emax [1, 5] | Ki [2, 6] | Emax [3, 8] | EC50 [3, 10] | EC50 [1, 11] | Emax [1, 12] | Ki [2, 13] | Emax [3, 15] | also measured
1 | CN1CCC=C(c2n[nH]c3ccc(F)cc23)C1 [Example 102, 5-fluoro-3-(1-methyl-1,2,5,6-tetrahydropyridin-3-yl)-1H-indazole] | 129 nM | 79.8% | 246 nM | 84.5% |  |  |  |  |  | EC50 [3, 7]: 9 nM
2 | CCc1cccc2c(C3=CCCNC3)n[nH]c12 [Example 121, 7-ethyl-3-(1,2,5,6-tetrahydropyridin-3-yl)-1H-indazole] |  | 85.7% | 422 nM | 103% |  |  |  |  |  | EC50 [1, 9]: 75.8 nM; EC50 [3, 7]: 20.2 nM
3 | COc1cnc2[nH]cc(C3=CCCN(C)C3)c2c1 [Example 6, 5-methoxy-3-(1-methyl-1,2,5,6-tetrahydropyridin-3-yl)-1H-pyrrolo[2,3-b]pyridine] | 792 nM | 33.4% | 695 nM | 65.9% | 44.1 nM |  |  |  |  | 
4 | Clc1cccc2c(C3=CC4CCC(C3)N4)n[nH]c12 (stereo not shown) [Example 221, 3-(8-azabicyclo[3.2.1]oct-2-en-3-yl)-7-chloro-1H-indazole] |  |  |  |  |  | 1320 nM | 66.9% | 1400 nM | 59.3% | EC50 [3, 14]: 108 nM
5 | CN1CCC=C(c2c[nH]c3cc(Cl)ccc23)C1 [Example 32, 6-chloro-3-(1-methyl-1,2,5,6-tetrahydropyridin-3-yl)-1H-indole] | 709 nM | 45.5% | 236 nM | 77.5% | 304 nM |  |  |  |  | 
6 | C1=C(c2n[nH]c3ccccc23)CNCC1 [Example 45, 3-(1,2,5,6-tetrahydropyridin-3-yl)-1H-indazole] | 138 nM | 68.1% | 113 nM | 98.3% |  |  |  |  |  | 
7 | COc1cccc2[nH]nc(C3=CCCN(C)C3)c12 [Example 100, 4-methoxy-3-(1-methyl-1,2,5,6-tetrahydropyridin-3-yl)-1H-indazole] | 460 nM | 52.4% | 349 nM | 63.9% |  |  |  |  |  | EC50 [3, 7]: 91.6 nM
8 | CCCN1CCC=C(c2c[nH]c3c(C)cccc23)C1 [Example 155, 7-methyl-3-(1-propyl-1,2,5,6-tetrahydropyridin-3-yl)-1H-indole] |  |  |  |  |  | 532 nM | 34.4% | 539 nM | 68.5% | EC50 [3, 16]: 29.5 nM
9 | Clc1cccc2c(C3=CCCN(Cc4ccccc4)C3)c[nH]c12 [Example 67, 3-(1-benzyl-1,2,5,6-tetrahydropyridin-3-yl)-7-chloro-1H-indole] | 756 nM | 46.6% | 90.2 nM | 48.8% | 44.1 nM |  |  |  |  | 
10 | Clc1ccc2c(C3=CCCNC3)n[nH]c2c1 [Example 77, 6-chloro-3-(1,2,5,6-tetrahydropyridin-3-yl)-1H-indazole] | 430 nM | 76.7% | 439 nM | 93.9% |  |  |  |  |  | EC50 [3, 7]: 38.9 nM
11 | Cc1ccnc2c(C3=CCCN(C)C3)c[nH]c12 [Example 137, 7-methyl-3-(1-methyl-1,2,5,6-tetrahydropyridin-3-yl)-1H-pyrrolo[3,2-b]pyridine] |  |  |  |  |  | 372 nM | 44.6% | 531 nM | 74.4% | EC50 [3, 14]: 57.6 nM
12 | Cc1cccc2c(C3=CCCNC3)n[nH]c12 [Example 88, 7-methyl-3-(1,2,5,6-tetrahydropyridin-3-yl)-1H-indazole] | 227 nM | 64.8% | 211 nM | 72.6% |  |  |  |  |  | EC50 [3, 7]: 52.8 nM
13 | CCCc1cccc2c(C3=CCCN(CC)C3)c[nH]c12 [Example 245, 3-(1-ethyl-1,2,5,6-tetrahydropyridin-3-yl)-7-propyl-1H-indole] |  |  |  |  |  | 1300 nM |  | 600 nM |  | Emax [1, 17]: 44.8%; EC50 [3, 14]: 392 nM; Emax [3, 18]: 87.5%
14 | CCc1cccc2c(C3=CCCN(Cc4ccccc4)C3)c[nH]c12 [Example 69, 3-(1-benzyl-1,2,5,6-tetrahydropyridin-3-yl)-7-ethyl-1H-indole] | 1740 nM | 63.5% | 199 nM | 49.7% | 98.2 nM |  |  |  |  | 
15 | Fc1cc(Cl)c2[nH]nc(C34CNCC3C4)c2c1 (stereo not shown) [Example 185, 3-(3-azabicyclo[3.1.0]hexan-1-yl)-7-chloro-5-fluoro-1H-indazole] |  |  |  |  |  | 542 nM | 46.1% | 6740 nM | 78.1% | EC50 [3, 14]: 290 nM
16 | Clc1cccc2c(C3=CCNC3)c[nH]c12 [Example 209, 7-chloro-3-(2,5-dihydro-1H-pyrrol-3-yl)-1H-indole] |  |  |  |  |  |  | 88.1% | 160 nM | 100% | EC50 [1, 19]: 60.7 nM; EC50 [3, 16]: 8.1 nM
17 | CN1CCC=C(c2c[nH]c3c(Cl)cccc23)C1 [Example 44, 7-chloro-3-(1-methyl-1,2,5,6-tetrahydropyridin-3-yl)-1H-indole] |  | 37.6% |  | 86.6% |  |  |  |  |  | EC50 [1, 9]: 78.8 nM; Ki [2, 20]: 76.3 nM; EC50 [3, 7]: 18.9 nM
18 | CN1CCC=C(c2c[nH]c3cccc(-c4ccccc4)c23)C1 [Example 21, 3-(1-methyl-1,2,5,6-tetrahydropyridin-3-yl)-4-phenyl-1H-indole] | 358 nM | 15.1% | 14 nM | 59.6% | 874 nM |  |  |  |  | 
19 | CCc1cccc2c(C3=CCCN(C4CC4)C3)n[nH]c12 [Example 238, 3-(1-cyclopropyl-1,2,5,6-tetrahydropyridin-3-yl)-7-ethyl-1H-indazole] |  |  |  |  |  | 1020 nM | 50% | 634 nM | 42.2% | EC50 [3, 14]: 101 nM
20 | CN1CCC=C(c2n[nH]c3c(F)cccc23)C1 [Example 107, 7-fluoro-3-(1-methyl-1,2,5,6-tetrahydropyridin-3-yl)-1H-indazole] | 213 nM |  | 883 nM |  | 34.5 nM |  |  |  |  | Emax ([1]; read-out: 5HT2A β-Arr Emax (%), BRET1 beta-arrestin2 recruitment, HEK293T cells, normalized to 5-HT): 36.3%; Emax ([3]; read-out: 5HT2A Gq Emax (%), BRET2 Gαq dissociation, HEK293T cells, normalized to 5-HT): 68.1%
21 | Fc1ccnc2[nH]cc(C3=CCCNC3)c12 [Example 119, 4-fluoro-3-(1,2,5,6-tetrahydropyridin-3-yl)-1H-pyrrolo[2,3-b]pyridine] | 1520 nM | 53.8% | 844 nM | 88.2% | 193 nM |  |  |  |  | 
22 | CN1CCC=C(c2n[nH]c3c(C#N)cccc23)C1 [Example 108, 3-(1-methyl-1,2,5,6-tetrahydropyridin-3-yl)-1H-indazole-7-carbonitrile] | 494 nM | 72.5% | 1380 nM | 102% | 108 nM |  |  |  |  | 
23 | Clc1cccc2c(C3=CCNC3)n[nH]c12 [Example 206, 7-chloro-3-(2,5-dihydro-1H-pyrrol-3-yl)-1H-indazole] |  |  |  |  |  |  | 108% | 272 nM | 117% | EC50 [1, 19]: 44.8 nM; EC50 [3, 16]: 14.4 nM
24 | CC(C)c1ccc2[nH]cc(C3=CCCNC3)c2c1 [Example 23, 5-isopropyl-3-(1,2,5,6-tetrahydropyridin-3-yl)-1H-indole] |  | 31.4% |  | 58.8% |  |  |  |  |  | EC50 [1, 9]: 735 nM; Ki [2, 20]: 98.6 nM; EC50 [3, 7]: 65.7 nM
25 | Cc1c(F)ccc2c(C34CNCC3C4)c[nH]c12 (stereo not shown) [Example 283, 3-(3-azabicyclo[3.1.0]hexan-1-yl)-6-fluoro-7-methyl-1H-indole] |  |  |  |  |  | 797 nM |  | 141 nM |  | Emax [1, 17]: 41.5%; EC50 [3, 14]: 88.2 nM; Emax [3, 18]: 104%
26 | FC1(F)C2CNCC21c1n[nH]c2c(Cl)cccc12 (stereo not shown) [Example 199, 7-chloro-3-(6,6-difluoro-3-azabicyclo[3.1.0]hexan-1-yl)-1H-indazole] |  |  |  |  |  | 956 nM | 76.5% | 3440 nM | 87.1% | EC50 [3, 14]: 174 nM
27 | Cc1cccc2c(C3=CCCN(Cc4ccccc4)C3)c[nH]c12 [Example 68, 3-(1-benzyl-1,2,5,6-tetrahydropyridin-3-yl)-7-methyl-1H-indole] | 490 nM | 42.4% | 115 nM | 40.2% | 127 nM |  |  |  |  | 
28 | C1=C(c2c[nH]c3cccnc23)CNCC1 [Example 138, 3-(1,2,5,6-tetrahydropyridin-3-yl)-1H-pyrrolo[3,2-b]pyridine] |  |  |  |  |  | 1420 nM | 101% | 147 nM | 79% | EC50 [3, 14]: 118 nM
